The text below walks through data of patent US8946203B2, “Benzodioxane inhibitors of leukotriene production” (Boehringer Ingelheim International GmbH, priority 2012, dated 2015).

The structures appear in SMILES notation. pIC50: −log10 of the molar value. Where a name gives a salt, the structure may show the parent alone.

Experiment [1] has as its target T1, human LTA4 hydrolase (Homo sapiens, UniProt P09960).
T1 sequence (P09960 1-611): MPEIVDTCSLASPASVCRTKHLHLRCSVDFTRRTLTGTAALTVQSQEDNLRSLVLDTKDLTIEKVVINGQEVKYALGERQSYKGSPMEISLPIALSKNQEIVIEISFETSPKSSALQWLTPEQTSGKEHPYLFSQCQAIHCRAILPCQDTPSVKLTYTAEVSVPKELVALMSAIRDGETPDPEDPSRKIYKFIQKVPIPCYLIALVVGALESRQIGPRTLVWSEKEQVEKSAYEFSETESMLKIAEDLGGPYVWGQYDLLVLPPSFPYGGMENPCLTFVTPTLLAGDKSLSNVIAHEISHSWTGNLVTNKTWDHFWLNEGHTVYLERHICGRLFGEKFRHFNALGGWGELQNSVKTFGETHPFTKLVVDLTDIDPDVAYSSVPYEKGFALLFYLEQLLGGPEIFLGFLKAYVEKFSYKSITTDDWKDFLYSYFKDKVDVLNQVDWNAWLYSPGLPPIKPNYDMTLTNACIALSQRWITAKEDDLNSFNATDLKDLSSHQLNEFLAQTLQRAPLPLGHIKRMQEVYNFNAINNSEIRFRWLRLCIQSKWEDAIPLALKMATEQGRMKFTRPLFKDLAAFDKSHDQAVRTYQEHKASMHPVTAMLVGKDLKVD
Description: LTA4H Enzyme assay (cleavage of Arg-AMC, fluorescence). The format is biochemical. Particulars: LTA4H Enzyme 1 nM, Arg-AMC substrate 50 μM, room temperature 1 h, fluorescence; read-out: IC50 values of LTA4H Enzyme assay. The essentials:
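Peptidase activity of human LTA4H (1 nM final) on Arg-AMC (50 μM final), with compound, 1 h at room temperature. Buffer: 50 mM Tris-HCl pH 7.5, 100 mM KCl, 0.5% BSA.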

Experiment [2] deals with synthesis of LTB4 in human whole blood. Description: human whole blood (HWB) assay, LTB4 production inhibition after calcimycin stimulation. Type of experiment: cell-based. Conditions: heparinized human whole blood, calcimycin 20 μM, plasma LTB4 by HTRF. The method, then:
The compounds of the invention are additionally tested in a human whole blood (HWB) assay to determine their ability to inhibit the synthesis of LTB4 in a cellular system. Compounds are combined with heparinized human whole blood and incubated for 15 minutes at 37° C. Calcimycin (20 μM final, prepared in phosphate-buffered saline, pH 7.4) is then added and the mixture is incubated for another 30 minutes at 37° C. The samples are centrifuged for 5 min at low speed (1500×g) and the plasma layer is removed. Plasma LTB4 concentrations are then measured using an antibody-based homogenous time-resolved fluorescence method (CisBio, Bedford, Mass.). In general, the preferred potency range (IC50) of compounds in the HWB assay is between 10 nM to 10 μM, the more preferred potency range is 10 nM to 1 μM, and the most preferred potency range is 10 nM to 100 nM.
On the technique in general: In TR-FRET formats the signal depends on donor and acceptor labels being close together.

For `c1ccc2c(c1)OCC(c1ccc(CN3CCCC3)cc1)O2` (racemic) [Example 1, 1-[4-(2,3-dihydro-1,4-benzodioxin-2-yl)benzyl]pyrrolidine], the pIC50 in experiment [1] was 9.42; in experiment [2] it was 6.75.

Turning to `O[C@H]1CCN(Cc2ccc(C3COc4ccccc4O3)cc2)C1` (mixture of isomers) [Example 9, (3S)-1-[4-(2,3-dihydro-1,4-benzodioxin-2-yl)benzyl]pyrrolidin-3-ol], the pIC50 in experiment [1] was 8.83; in experiment [2], 6.55.

With `O=C1CCCN1CC1CCCN(Cc2ccc(C3COc4ccccc4O3)cc2)C1` (racemic) [Example 10, 1-({1-[4-(2,3-dihydro-1,4-benzodioxin-2-yl)benzyl]piperidin-3-yl}methyl)pyrrolidin-2-one], the negative-log IC50 (pIC50) was 9.12 in experiment [1] and 6.45 in experiment [2].

As to `c1cnc2c(c1)OCC(c1ccc(CN3CCOCC3)cc1)O2` (racemic) [Example 18, 3-[4-(morpholin-4-ylmethyl)phenyl]-2,3-dihydro[1,4]dioxino[2,3-b]pyridine], the negative-log IC50 (pIC50) is 8.94 in experiment [1] and 6.75 in experiment [2].

With `CNC(=O)C1CCN(Cc2ccc(C3COc4ccccc4O3)cc2)CC1` (racemic) [Example 25, 1-[4-(2,3-Dihydro-benzo[1,4]dioxin-2-yl)-benzyl]-piperidine-4-carboxylic acid methylamide], the figures for the pIC50 in experiment [1] and in experiment [2] were 9.12 and 6.53, respectively.

As to `O=C(O)CCCC1CCN(Cc2ccc(C3COc4ccccc4O3)cc2)CC1` (racemic) [Example 26, 4-{1-[4-(2,3-dihydro-1,4-benzodioxin-2-yl)benzyl]piperidin-4-yl}butanoic acid], the pIC50 in experiment [1] is 9.37; in experiment [2], 6.51.

As for `O=C(C1CCN(Cc2ccc(C3COc4ccccc4O3)cc2)CC1)N1CCOCC1` (racemic) [Example 37, {1-[4-(2,3-dihydro-1,4-benzodioxin-2-yl)benzyl]piperidin-4-yl}(morpholin-4-yl)methanone], the pIC50 in experiment [1] was 8.98; in experiment [2] it was 6.49.

Turning to `O=C(NCCO)C1CCN(Cc2ccc(C3COc4ccccc4O3)cc2)CC1` (racemic) [Example 52, 1-[4-(2,3-dihydro-1,4-benzodioxin-2-yl)benzyl]-N-(2-hydroxyethyl)piperidine-4-carboxamide], the pIC50 in experiment [1] was 9.12; in experiment [2], 6.84.

On to `NC(=O)NC1CCN(Cc2ccc(C3COc4ccccc4O3)cc2)CC1` (racemic) [Example 53, 1-{1-[4-(2,3-dihydro-1,4-benzodioxin-2-yl)benzyl]piperidin-4-yl}urea], for which the pIC50 in experiment [1] is 9.38; in experiment [2] it was 6.81.

Consider `CC(=O)N1CCC(N(C)Cc2ccc([C@H]3COc4ccccc4O3)cc2)CC1` [Example 14, 1-{4-[{4-[(2S)-2,3-dihydro-1,4-benzodioxin-2-yl]benzyl}(methyl)amino]piperidin-1-yl}ethanone], for which the figures for the pIC50 in experiment [1] and in experiment [2] were 9.57 and 6.81, respectively.

With `O=C(O)C1CCN(Cc2ccc([C@H]3COc4ccccc4O3)cc2)C1` (stereo partly drawn) [Example 61, 1-{4-[(2S)-2,3-dihydro-1,4-benzodioxin-2-yl]benzyl}pyrrolidine-3-carboxylic acid], the pIC50 is 9.22 in experiment [1] and 6.60 in experiment [2].

Take `CC(=O)N1CC[C@@H](NCc2ccc([C@H]3COc4ccccc4O3)cc2)C1` [Example 64, 1-[(3R)-3-({4-[(2S)-2,3-dihydro-1,4-benzodioxin-2-yl]benzyl}amino)pyrrolidin-1-yl]ethanone]: the pIC50 in experiment [1] is 9.08; in experiment [2], 6.80.

Consider `CN(Cc1ccc([C@H]2COc3ccccc3O2)cc1)C1CCCCC1` [Example 67, N-{4-[(2S)-2,3-dihydro-1,4-benzodioxin-2-yl]benzyl}-N-methylcyclohexanamine], for which the negative logarithm of the IC50 (pIC50) was 9.21 in experiment [1] and 6.46 in experiment [2].

Regarding `CC1CCCCN1Cc1ccc([C@H]2COc3ccccc3O2)cc1` (stereo partly drawn) [Example 68, 1-{4-[(2S)-2,3-dihydro-1,4-benzodioxin-2-yl]benzyl}-2-methylpiperidine], the pIC50 was 10.00 in experiment [1] and 7.09 in experiment [2].

Regarding `OCC1CCCN(Cc2ccc([C@H]3COc4ccccc4O3)cc2)C1` (stereo partly drawn) [Example 69, (1-{4-[(2S)-2,3-dihydro-1,4-benzodioxin-2-yl]benzyl}piperidin-3-yl)methanol], the negative-log IC50 (pIC50) in experiment [1] is 9.22; in experiment [2], 6.78.

On to `CN(Cc1ccc([C@H]2COc3ccccc3O2)cc1)C(C)(C)C` [Example 81, N-{4-[(2S)-2,3-dihydro-1,4-benzodioxin-2-yl]benzyl}-N,2-dimethylpropan-2-amine], for which the pIC50 was 9.51 in experiment [1] and 7.09 in experiment [2].

In the case of `CC(=O)N(C)C1CCN(Cc2ccc([C@H]3COc4ccccc4O3)cc2)C1` (stereo partly drawn) [Example 83, N-(1-{4-[(2S)-2,3-dihydro-1,4-benzodioxin-2-yl]benzyl}pyrrolidin-3-yl)-N-methylacetamide], the pIC50 in experiment [1] is 9.89; in experiment [2], 7.48.

In the case of `OC[C@H]1CCCC[C@H]1NCc1ccc([C@H]2COc3ccccc3O2)cc1` [Example 87, [(1S,2R)-2-({4-[(2S)-2,3-dihydro-1,4-benzodioxin-2-yl]benzyl}amino)cyclohexyl]methanol], the pIC50 in experiment [1] was 9.16; in experiment [2], 6.57.

With `O=C1CCCN1CC1CCN(Cc2ccc([C@H]3COc4ccccc4O3)cc2)CC1` [Example 99, 1-[(1-{4-[(2S)-2,3-dihydro-1,4-benzodioxin-2-yl]benzyl}piperidin-4-yl)methyl]pyrrolidin-2-one], the pIC50 is 9.43 in experiment [1] and 7.02 in experiment [2].

As for `CCN(Cc1ccc([C@H]2COc3ccccc3O2)cc1)C1CCCC1` [Example 109, N-{4-[(2S)-2,3-dihydro-1,4-benzodioxin-2-yl]benzyl}-N-ethylcyclopentanamine], the pIC50 was 9.77 in experiment [1] and 7.12 in experiment [2].

For the compound `CC(c1ccc([C@H]2COc3ccccc3O2)cc1)N1CCOCC1` (stereo partly drawn) [Example 226, 4-(1-{4-[(2S)-2,3-dihydro-1,4-benzodioxin-2-yl]phenyl}ethyl)morpholine], in experiment [1], the negative logarithm of the IC50 (pIC50) was 7.37.

On to `CC1(C(=O)O)CCN(Cc2ccc([C@H]3COc4cccnc4O3)cc2)CC1` [Example 228, 1-[(S)-4-(2,3-Dihydro-[1,4]dioxino[2,3-b]pyridin-3-yl)-benzyl]-4-methyl-piperidine-4-carboxylic acid formate salt], for which the pIC50 in experiment [1] was 9.21.

Take `CC(C)(C(=O)O)C1CCN(Cc2ccc([C@H]3COc4cccnc4O3)cc2)CC1` [Example 230, 2-{1-[(S)-4-(2,3-Dihydro-[1,4]dioxino[2,3-b]pyridin-3-yl)-benzyl]-piperidin-4-yl}-2-methyl-propionic acid formate salt]: the negative logarithm of the IC50 (pIC50) in experiment [1] was 8.91.

Consider `O=C(O)c1ccc(CC2CCN(Cc3ccc([C@H]4COc5ccccc5O4)cc3)CC2)cc1` [Example 231, 4-{1-[(S)-4-(2,3-Dihydro-benzo[1,4]dioxin-2-yl)-benzyl]-piperidin-4-ylmethyl}-benzoic acid], for which, in experiment [1], the pIC50 was 9.54.

Consider `O=C(O)c1ccc2c(c1)CN(Cc1ccc([C@H]3COc4ccccc4O3)cc1)CC2` [Example 232, 2-{4-[(2S)-2,3-dihydro-1,4-benzodioxin-2-yl]benzyl}-1,2,3,4-tetrahydroisoquinoline-7-carboxylic acid], for which, in experiment [1], the pIC50 is 8.56.

As for `O=C(O)c1ccc(C2CCN(Cc3ccc([C@H]4COc5ccccc5O4)cc3)CC2)cc1` [Example 233, 4-(1-{4-[(2S)-2,3-dihydro-1,4-benzodioxin-2-yl]benzyl}piperidin-4-yl)benzoic acid], the pIC50 in experiment [1] was 9.66.

For `O=C(O)c1ccc(C2CCN(Cc3ccc([C@H]4COc5cccnc5O4)cc3)CC2)cc1` [Example 235, 4-(1-{4-[(3S)-2,3-dihydro[1,4]dioxino[2,3-b]pyridin-3-yl]benzyl}piperidin-4-yl)benzoic acid], the pIC50 in experiment [1] is 10.10.

On to `CCN(Cc1ccc([C@H]2COc3ccccc3O2)cc1)Cc1cccc(C(=O)O)c1` [Example 238, 3-{[{4-[(2S)-2,3-dihydro-1,4-benzodioxin-2-yl]benzyl}(ethyl)amino]methyl}benzoic acid], for which the pIC50 in experiment [1] was 9.26.

Regarding `O=C(O)c1cccc(CN2CCN(Cc3ccc([C@H]4COc5ccccc5O4)cc3)CC2)c1` [Example 239, 3-{4-[(S)-4-(2,3-Dihydro-benzo[1,4]dioxin-2-yl)-benzyl]-piperazin-1-ylmethyl}-benzoic acid], in experiment [1], the pIC50 was 9.82.

As a reminder, the pIC50 is the negative decadic logarithm of the IC50, by convention in mol/L.
